For series [1] the following is noted: reputed; EPO Publication No. 0184162; cited from earlier work.
A further series relates to mouse T lymphocytes. Nature of the series: T-cell proliferation assay (ionomycin plus PMA induced, tritiated thymidine uptake). The series is classed as cell-based, mouse (C57B1/6). The protocol:
The principle of this assay is to measure the proliferation of mouse T lymphocytes stimulated with the combination of ionomycin plus PMA. A positive sample in this assay will inhibit T-cell proliferation, as indicated by reduced tritiated thymidine uptake.
Purified L-685,487, as prepared by HPLC above, was dissolved in absolute ethanol at 1 mg/ml.
Spleens from C57B1/6 mice were taken under sterile conditions and gently dissociated in ice-cold RPMI 1640 culture medium (GIBCO, Grand Island, N.Y.) supplemented with 10% heat-inactivated fetal calf serum (GIBCO). Cells were pelleted by centrifugation at 1500 rpm for 8 minutes. Contaminating red cells were removed by treating the pellet with ammonium chloride lysing buffer (GIBCO) for 2 minutes at 4° C. Cold medium was added and cells were again centrifuged at 1500 rpm. for 8 minutes. T lymphocytes were then isolated by separation of the cell suspension on nylon wool columns as follows: Nylon wool columns were prepared by packing approximately 4 grams of washed and dried nylon wool into 20 ml plastic syringes. The columns were sterilized by autoclaving at 250° F. for 30 minutes. Nylon wool columns were wetted with warm (37° C.) culture medium and rinsed with the same medium. Washed spleen cells resuspended in warm medium were slowly applied to the nylon wool. The columns were then incubated in an upright position at 37° C. for 1 hour. Non-adherent T lymphocytes were eluted from the columns with warm culture medium and the cell suspensions were spun as above.
Purified T lymphocytes were resuspended at 2.5×10^5 cells/ml in complete culture medium composed of RPMI 1640 medium with 10% heat-inactivated fetal calf serum, […] glutamine, 1 mM sodium pyruvate, 2×10^-5 M 2-mercaptoethanol and 50 μg/ml gentamycin. Ionomycin was added at 250 ng/ml and PMA at 10 ng/ml. The cell suspension was immediately distributed into 96 well flat-bottom microculture plates (Costar) at 200 μl/well. The control, being the medium without test drug, and various below-indicated dilutions of the sample (above-describedpurified L-683,756) to be tested were then added in triplicate wells at 20 μl/well. L-679,934 was used as a standard. The culture plates were then incubated at 37° C. in a humidified atmosphere of 5% CO2 -95% air for 44 hours. The proliferation of T lymphocytes was assessed by measurement of tritiated thymidine incorporation. After 44 hours of culturing, the cells were pulse-labelled with 2 μ Ci/well of tritiated thymidine (NEN, Cambridge, Mass.). After another 4 hours of incubation, cultures were harvested on glass fiber filters using a multiple sample harvester. Radioactivity of filter discs corresponding to individual wells was measured by standard liquid scintillation counting methods (Betacounter). Mean counts per minute of replicate wells were calculated and the results expressed as percent inhibition of tritiated thymidine uptake (proliferation) as follows: [formula]

Series [2] in a line: Solubility (physical characteristics). The class given is physicochemical. As to conditions: methanol.

pIC50: −log10 of the molar value. “And” between values parts separate entries of the source, which are not always exact repeats. Identical values can stand only once. “Also recorded” adds a separate entry of the source. Like-named read-outs stand apart in the source and are kept apart here.

For the molecule `C=CC[C@@H]1/C=C(\C)C[C@H](C)C[C@H](OC)[C@H]2O[C@@](O)(C(=O)C(=O)N3CCCC[C@H]3C(=O)O[C@H](/C(C)=C/[C@@H]3CC[C@@H](O)[C@H](OC)C3)[C@H](C)[C@@H](O)CC1=O)[C@H](C)C[C@@H]2OC` [FK-506], the “effectiveness relative to cyclosporin” value in series [1] is 100 times.
Regarding `C=CC[C@@H]1/C=C(\C)C[C@H](C)C[C@H](OC)[C@H]2O[C@@](O)(C(=O)C(=O)N3CCCC[C@H]3C(=O)O[C@H](/C(C)=C/[C@@H]3CC[C@@H](O)[C@H](OC)C3)[C@H](C)[C@@H](O)CC1=O)[C@H](C)C[C@@H]2OC.O` [L679,934, reference compound], in the series with mouse T lymphocytes (10 ng/ml), the “% inhibition, standard” value was 99%.
On to `CC[C@@H]1/C=C(\C)CC(C)C[C@H](OC)C(O)[C@@H]2CC(C)C(O)(O2)C(=O)C(=O)N2CCCC[C@H]2C(=O)O[C@H](/C(C)=C/[C@@H]2CC[C@@H](O)C(OC)C2)[C@H](C)C(O)CC1=O` (stereo partly drawn) [L-685,487], for which the Solubility entry in series [2] is listed as “Solubility in methanol”. Moreover, the inhibition – broadly, the percentage by which the read-out fell short of the control – at 0.00058 µg/mL in the series on mouse T lymphocytes (Mus musculus, T-lymphocyte, 0.58 ng/ml) amounted to 0%. In the series on mouse T lymphocytes (Mus musculus, T-lymphocyte, 0.87 ng/ml), the inhibition at 0.00087 µg/mL was determined as 0%. Further, the inhibition at 0.0013 µg/mL in the series on mouse T lymphocytes (Mus musculus, T-lymphocyte, 1.3 ng/ml) was 9%. Moreover, the inhibition at 0.0019 µg/mL in the series on mouse T lymphocytes (Mus musculus, T-lymphocyte, 1.9 ng/ml) came to 10%. Moreover, the inhibition at 0.0029 µg/mL in the series on mouse T lymphocytes (Mus musculus, T-lymphocyte, 2.9 ng/ml) stood at 10%. Moreover, in the series on mouse T lymphocytes (Mus musculus, T-lymphocyte, 4.4 ng/ml), the inhibition at 0.0044 µg/mL is 39%. Besides, the inhibition at 0.0066 µg/mL with mouse T lymphocytes (Mus musculus, T-lymphocyte, 6.6 ng/ml) worked out at 71%. Further, in the series with mouse T lymphocytes (Mus musculus, T-lymphocyte, 9.9 ng/ml), the inhibition at 0.0099 µg/mL came out at 88%. The inhibition at 0.015 µg/mL with mouse T lymphocytes (Mus musculus, T-lymphocyte, 15.0 ng/ml) stood at 92%. The inhibition at 0.022 µg/mL in the series with mouse T lymphocytes (Mus musculus, T-lymphocyte, 22.0 ng/ml) was determined as 98%. Also, the inhibition at 0.033 µg/mL with mouse T lymphocytes (Mus musculus, T-lymphocyte, 33.0 ng/ml) amounted to 99%. For the same molecule, the inhibition at 0.05 µg/mL in the series on mouse T lymphocytes (Mus musculus, T-lymphocyte, 50.0 ng/ml) turned out to be 99%. For the same molecule, the IC50 (as a rule, the concentration that gives 50% inhibition) in the series with mouse T lymphocytes (Mus musculus, T-lymphocyte, T-cell proliferation, 3H-thymidine pulse 4 hours, harvest at 48 hours, read-out: IC50) was 0.0049 µg/mL and 6.3 nM. Moreover, the pIC50 (usually −log10 of the IC50, conventionally taken in molar units) with mouse T lymphocytes (Mus musculus, T-lymphocyte, generally in the range, read-out: IC50, general range) is 7.92 to 8.22. Also, the “Inhibition of proliferation upon addition of IL2” value in the series on mouse T lymphocytes (addition of 50 units/m of recombinant human IL2) is recorded as “Inhibition of proliferation was reversed”. The “inhibition of T-cell activation (immunosuppressive activity)” value in the series on mouse T lymphocytes (qualitative) is reported as “positive inhibition of T-cell activation; also recorded: positive immunosuppressive activity”.

Values taken from patent publication US4975372A, “Microbial transformation product of L-683,590” (Merck & Co., Inc., priority 1989, dated 1990).
